Data published in EP3714904B1, “IMINODIACETIC ACID SUBSTITUTED CYCLODEXTRINS AS POTENTIATORS OF BETA-LACTAM ANTIBIOTICS” (NATIONAL CENTER FOR SCIENTIFIC RESEARCH "DEMOKRITOS" (NCSRD), priority 2019, dated 2020).
Like-named read-outs stand apart in the source and are kept apart here.

Key:
[1] = target: T1, MBL containing crude enzyme preparation (Kpn LA-26 NDM-1) (Klebsiella pneumoniae, UniProt C7C422); assay: 1H NMR monitoring of meropenem hydrolysis by MBL crude enzyme preparation; type: biochemical; details: meropenem 0.18 mM, absence of β-IDACYD, 6 h incubation
T1 construct: an MBL containing crude enzyme preparation (Kpn LA-26 NDM-1, 485 µL); endogenous in cells; host or cells: Klebsiella pneumoniae clinical strain LA-26 (crude enzyme preparation)

[2] = system: Klebsiella pneumoniae; assay: MIC of β-lactams alone or with 50 µM IDACYD against clinical isolates; type: cell-based; details: Klebsiella pneumoniae, alone
Description: Further the in-vitro inhibitory activity of IDACYDs was tested against highly resistant pathogens. […] Table 2: Collection of clinical isolates used for in-vitro evaluation

T1 sequence (C7C422 29-270 limits assumed): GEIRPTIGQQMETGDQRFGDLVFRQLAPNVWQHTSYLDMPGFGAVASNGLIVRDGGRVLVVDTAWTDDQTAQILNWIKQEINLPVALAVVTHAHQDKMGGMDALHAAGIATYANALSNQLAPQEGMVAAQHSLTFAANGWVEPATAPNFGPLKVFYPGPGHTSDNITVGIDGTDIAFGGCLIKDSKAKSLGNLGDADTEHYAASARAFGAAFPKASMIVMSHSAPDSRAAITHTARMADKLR

C[C@@H](O)[C@H]1C(=O)N2C(C(=O)O)=C(S[C@@H]3CN[C@H](C(=O)N(C)C)C3)[C@H](C)[C@H]12 [Meropenem, reference compound] showed a drug hydrolyzed [1] of ~100%, an MIC ([2]; read-out: Meropenem MIC, Kpn ESDY 5742 (IMP-1)) of 32 µg/mL and an MIC ([2]; read-out: Meropenem MIC, Kpn LA 26 (NDM-1)) of 32 µg/mL. It also gave an MIC ([2]; read-out: Meropenem MIC, Kpn LA 34 (VIM-1 CMY)) of 256 µg/mL, an MIC ([2]; read-out: Meropenem MIC, Kpn LA 82/16 (VIM-1)) of 64 µg/mL and an MIC ([2]; read-out: Meropenem MIC, Kpn LA 109/16 (VIM-1)) of 256 µg/mL. For the same molecule, the MIC ([2]; read-out: Meropenem MIC, Kpn LA419/16 (NDM-1)) was 16 µg/mL, the MIC ([2]; read-out: Meropenem MIC, isolate ALX-47 (OXA-48,CTX-M)) was 8 µg/mL and the MIC ([2]; read-out: Meropenem MIC, isolate ESDY-1780 (VIM, KPC)) was 64 µg/mL. The MIC ([2]; read-out: Meropenem MIC, isolate ESDY-5742 (IMP)) was 16 µg/mL, the MIC ([2]; read-out: Meropenem MIC, isolate EY-20S (CMY, SHV)) was 8 µg/mL and the MIC ([2]; read-out: Meropenem MIC, isolate IT-17829 (CTXM, SHV)) was 32 µg/mL. It also gave an MIC ([2]; read-out: Meropenem MIC, isolate L078/11 (KPC)) of 64 µg/mL, an MIC ([2]; read-out: Meropenem MIC, isolate LA-26 (NDM)) of 32 µg/mL and an MIC ([2]; read-out: Meropenem MIC, isolate LA-27 (NDM, CTXM)) of 8 µg/mL. For the same molecule, the MIC ([2]; read-out: Meropenem MIC, isolate LA-28 (NDM, CTXM)) was 64 µg/mL, the MIC ([2]; read-out: Meropenem MIC, isolate LA-34 (VIM, CMY), first entry of Table 3) was 256 µg/mL and the MIC ([2]; read-out: Meropenem MIC, isolate LA-34 (VIM, CMY), second entry of Table 3) was 64 µg/mL. It also gave an MIC ([2]; read-out: Meropenem MIC, isolate LA-82/16 (VIM, SHV)) of 64 µg/mL, an MIC ([2]; read-out: Meropenem MIC, isolate LA-419/16 (NDM,CTXM)) of 16 µg/mL and an MIC ([2]; read-out: Meropenem MIC, isolate LAR-26I/15 (NDM, VIM, CTXM)) of 64 µg/mL. The MIC ([2]; read-out: Meropenem MIC, isolate LAR-38I/15 (VIM, NDM, CTXM)) was 16 µg/mL, the MIC ([2]; read-out: Meropenem MIC, isolate LAR-40II/15 (KPC)) was 64 µg/mL and the MIC ([2]; read-out: Meropenem MIC, isolate LAR-2873 (VIM-12)) was 8 µg/mL. The MIC ([2]; read-out: Meropenem MIC, isolate SEC-2 (VIM)) was 64 µg/mL, the MIC ([2]; read-out: Meropenem MIC, isolate SEC-4 (VIM)) was 32 µg/mL and the MIC ([2]; read-out: Meropenem MIC, isolate TZAN-59 (β-lactamase: None)) was 0.5 µg/mL. For the same molecule, the MIC ([2]; read-out: Meropenem MIC, isolate UoA 12/227 (VIM)) was 64 µg/mL and the MIC ([2]; read-out: Meropenem MIC, isolate UoA 1995 (VIM)) was 64 µg/mL.
